From PubChem BioAssay AID330 (DTP/NCI, 2004)
Values joined by “and” are separate entries in the source; they are usually repeats but may differ in a detail not shown here. Equal entries are not always repeated. Toxic doses and inconclusive results are not listed. How the source made its calls: active means survival T/C of 150% or more; inactive means T/C below 125% in these data.

Tested on: P388 leukemia ip, CD2F1 mice, survival T/C
Assay: NCI In Vivo Anticancer Drug Screen. Data for tumor model P388 Leukemia (intraperitoneal) in CD2F1 (CDF1) mice
Details: endpoint: median survival time, higher = longer survival
Method in brief: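 Mice carrying the transplanted tumor received test compound or vehicle. Survival was recorded in each group, and the value is the treated-group measurement divided by that of the vehicle-treated control group.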

[1] = dose: 50.0 mg/kg/injection, schedule: Q01DX009 (ip), vehicle: saline
[2] = dose: 100.0 mg/kg/injection, schedule: Q01DX009 (ip), vehicle: saline
[3] = dose: 200.0 mg/kg/injection, schedule: Q01DX009 (ip), vehicle: saline
[4] = dose: 25.0 mg/kg/injection, schedule: Q01DX009 (ip), vehicle: saline
[5] = dose: 50.0 mg/kg/injection, schedule: Q01DX005 (ip), vehicle: saline with Tween-80
[6] = dose: 100.0 mg/kg/injection, schedule: Q01DX005 (ip), vehicle: saline with Tween-80
[7] = dose: 200.0 mg/kg/injection, schedule: Q01DX005 (ip), vehicle: saline with Tween-80
[8] = dose: 60.0 mg/kg/injection, schedule: Q01DX005 (ip), vehicle: saline with Tween-80
[9] = dose: 120.0 mg/kg/injection, schedule: Q01DX005 (ip), vehicle: saline with Tween-80
[10] = dose: 240.0 mg/kg/injection, schedule: Q01DX005 (ip), vehicle: saline with Tween-80
[11] = dose: 50.0 mg/kg/injection, schedule: Q01DX009 (ip), vehicle: saline with Tween-80
[12] = dose: 100.0 mg/kg/injection, schedule: Q01DX009 (ip), vehicle: saline with Tween-80

Measured: T/C

CN1CCCN(C)C1c1cc(Br)ccc1O
inactive: dose: 6.25 mg/kg/injection, schedule: Q01DX009 (ip), vehicle: saline sonified 95 % of control | dose: 12.5 mg/kg/injection, schedule: Q01DX009 (ip), vehicle: saline sonified 90 % of control | dose: 25.0 mg/kg/injection, schedule: Q01DX009 (ip), vehicle: saline sonified 100 % of control

CC(=O)Nc1cc(NC(C)=O)c(N=O)c(NC(C)=O)n1
inactive: [1] 100 % of control | [2] 99 % of control | [3] 91 % of control

O=[N+]([O-])c1ccc(/C=C(/c2ccc([N+](=O)[O-])o2)S(=O)(=O)C(Cl)(Cl)Cl)cc1
inactive: [4] 100 % of control | [1] 89 % of control | [2] 91 % of control | dose: 100.0 mg/kg/injection, schedule: Q01DX009 (ip), vehicle: suspension in saline 86 % of control

CC1=CCC2CN(CCN(C)C)CC2C1 (stereo not given)
inactive: [5] 100 % of control | [6] 99 % of control

O=S(=O)(Nc1ccnn1-c1ccccc1)c1ccc(NC(=S)Nc2ccccc2)cc1
inactive: [5] 96 % of control | [6] 93 % of control | [7] 91 % of control

CCN(CC)CCN1C(=O)C2C3C=CC(C2C1=O)C1C2C(=O)N(CCN(CC)CC)C(=O)C2C31 (stereo not given)
inactive: dose: 6.25 mg/kg/injection, schedule: Q01DX009 (ip), vehicle: water 104 % of control | dose: 12.5 mg/kg/injection, schedule: Q01DX009 (ip), vehicle: water 99 % of control and 100 % of control | dose: 25.0 mg/kg/injection, schedule: Q01DX009 (ip), vehicle: water 100 % of control and 111 % of control | dose: 50.0 mg/kg/injection, schedule: Q01DX009 (ip), vehicle: water 99 % of control and 103 % of control | dose: 100.0 mg/kg/injection, schedule: Q01DX009 (ip), vehicle: water 101 % of control and 111 % of control

COc1ccc(-c2csc(C)n2)cc1OC
inactive: dose: 100.0 mg/kg/injection, schedule: Q04DX003 (ip), vehicle: Klucel (hydroxypropylcellulose) (HPC) 106 % of control | dose: 200.0 mg/kg/injection, schedule: Q04DX003 (ip), vehicle: Klucel (hydroxypropylcellulose) (HPC) 106 % of control | dose: 400.0 mg/kg/injection, schedule: Q04DX003 (ip), vehicle: Klucel (hydroxypropylcellulose) (HPC) 103 % of control

Cn1c2ccccc2c2nnc(N/N=C/c3ccc([N+](=O)[O-])o3)nc21
inactive: dose: 100.0 mg/kg/injection, schedule: Q01DX001 (ip), vehicle: saline with Tween-80 90 % of control | dose: 200.0 mg/kg/injection, schedule: Q01DX001 (ip), vehicle: saline with Tween-80 91 % of control | dose: 400.0 mg/kg/injection, schedule: Q01DX001 (ip), vehicle: saline with Tween-80 96 % of control

Cc1ccc(NC(=O)CCCC(=O)C(C#N)c2ccccc2Cl)cc1C (stereo not given)
inactive: [8] 102 % of control | [9] 108 % of control | [10] 101 % of control

O=C1c2ccccc2C(=O)c2c(O)c(CBr)c(CBr)c(O)c21
inactive: [5] 96 % of control | [6] 104 % of control | [7] 95 % of control

CCC1=C(c2cccc(OC(C)=O)c2)C(C)c2ccc(OC(C)=O)cc21 (stereo not given)
inactive: dose: 60.0 mg/kg/injection, schedule: Q01DX005 (ip), vehicle: Klucel (hydroxypropylcellulose) (HPC) 96 % of control | dose: 120.0 mg/kg/injection, schedule: Q01DX005 (ip), vehicle: Klucel (hydroxypropylcellulose) (HPC) 95 % of control | dose: 240.0 mg/kg/injection, schedule: Q01DX005 (ip), vehicle: Klucel (hydroxypropylcellulose) (HPC) 95 % of control

CCOc1ccc(Nc2ccc(/C(=C3\C=CC(=[N+](CC)Cc4cccc(S(=O)(=O)O)c4)C=C3C)c3ccc(N(CC)Cc4cccc(S(=O)(=O)O)c4)cc3C)cc2)cc1
inactive: [11] 98 % of control | [12] 97 % of control

COc1cc2cc[n+]3cc4c(ccc5ccccc54)cc3c2cc1OC
active: dose: 6.25 mg/kg/injection, schedule: Q04DX003 (ip), vehicle: distilled water + Tween-80 166 % of control | dose: 12.5 mg/kg/injection, schedule: Q04DX003 (ip), vehicle: distilled water + Tween-80 158 % of control | dose: 12.5 mg/kg/injection, schedule: Q04DX003 (ip), vehicle: water 152 % of control | dose: 25.0 mg/kg/injection, schedule: Q04DX003 (ip), vehicle: distilled water + Tween-80 177 % of control

CC1OC2CC(O)C1(O)C1=C2C(O)=C(C(N)=O)C(=N)C1=O (stereo not given)
inactive: dose: 0.01 mg/kg/injection, schedule: Q01DX009 (ip), vehicle: water 99 % of control | dose: 0.03 mg/kg/injection, schedule: Q01DX009 (ip), vehicle: water 100 % of control | dose: 0.07 mg/kg/injection, schedule: Q01DX009 (ip), vehicle: other 95 % of control | dose: 0.1 mg/kg/injection, schedule: Q01DX009 (ip), vehicle: water 100 % of control | dose: 0.15 mg/kg/injection, schedule: Q01DX009 (ip), vehicle: other 98 % of control | dose: 0.3 mg/kg/injection, schedule: Q01DX009 (ip), vehicle: water 100 % of control | dose: 0.31 mg/kg/injection, schedule: Q01DX005 (ip), vehicle: saline 104 % of control | dose: 0.31 mg/kg/injection, schedule: Q01DX009 (ip), vehicle: other 107 % of control | dose: 0.62 mg/kg/injection, schedule: Q01DX005 (ip), vehicle: saline 104 % of control | dose: 0.62 mg/kg/injection, schedule: Q01DX009 (ip), vehicle: other 101 % of control | dose: 1.0 mg/kg/injection, schedule: Q01DX009 (ip), vehicle: water 90 % of control | dose: 1.25 mg/kg/injection, schedule: Q01DX005 (ip), vehicle: saline 104 % of control | dose: 1.25 mg/kg/injection, schedule: Q01DX009 (ip), vehicle: other 103 % of control | dose: 2.5 mg/kg/injection, schedule: Q01DX005 (ip), vehicle: saline 104 % of control | dose: 2.5 mg/kg/injection, schedule: Q01DX009 (ip), vehicle: other 113 % of control | dose: 3.0 mg/kg/injection, schedule: Q01DX009 (ip), vehicle: water 100 % of control | dose: 5.0 mg/kg/injection, schedule: Q01DX005 (ip), vehicle: saline 101 % of control

CN(C)CCO[Si](C)(C)C[Si](C)(C)OCCN(C)C
inactive: dose: 60.0 mg/kg/injection, schedule: Q01DX005 (ip), vehicle: saline 107 % of control | dose: 120.0 mg/kg/injection, schedule: Q01DX005 (ip), vehicle: saline 102 % of control | dose: 240.0 mg/kg/injection, schedule: Q01DX005 (ip), vehicle: saline 108 % of control

O=S1(=O)CC(N2CCCCC2)C2=C(O1)c1ccccc1SC2 (stereo not given)
inactive: [11] 88 % of control | [12] 92 % of control

CCCSc1nc2ccc(NC(=O)/C=C/C(=O)O)cc2s1
inactive: dose: 50.0 mg/kg/injection, schedule: Q01DX009 (ip), vehicle: Klucel (hydroxypropylcellulose) (HPC) 107 % of control | dose: 100.0 mg/kg/injection, schedule: Q01DX009 (ip), vehicle: Klucel (hydroxypropylcellulose) (HPC) 96 % of control | dose: 200.0 mg/kg/injection, schedule: Q01DX009 (ip), vehicle: Klucel (hydroxypropylcellulose) (HPC) 103 % of control

O=c1[nH]cc(CS)c(=O)[nH]1
inactive: dose: 12.5 mg/kg/injection, schedule: Q01DX009 (ip), vehicle: saline 102 % of control | [4] 108 % of control | [1] 100 % of control and 102 % of control | [2] 103 % of control

COc1nccnn1
inactive: [1] 95 % of control | [2] 91 % of control | [3] 95 % of control | dose: 400.0 mg/kg/injection, schedule: Q01DX009 (ip), vehicle: saline 107 % of control

C#CC(O)C1CC1 (stereo not given)
inactive: dose: 100.0 mg/kg/injection, schedule: Q01DX001 (ip), vehicle: saline + Tween-80 + alcohol 101 % of control

CCOC(C)(OCC)N(C)C
inactive: dose: 50.0 mg/kg/injection, schedule: Q01DX005 (ip), vehicle: saline 101 % of control | dose: 100.0 mg/kg/injection, schedule: Q01DX005 (ip), vehicle: saline 108 % of control | dose: 200.0 mg/kg/injection, schedule: Q01DX005 (ip), vehicle: saline 111 % of control

C=CCN(CC=C)c1nc(N)nc(N)n1
inactive: [1] 96 % of control | [2] 90 % of control | [3] 121 % of control

Fc1ccc(N(c2nc(Cl)nc(Cl)n2)c2nc(Cl)nc(Cl)n2)cc1
inactive: dose: 12.5 mg/kg/injection, schedule: Q01DX009 (ip), vehicle: saline with Tween-80 113 % of control | dose: 25.0 mg/kg/injection, schedule: Q01DX009 (ip), vehicle: saline with Tween-80 100 % of control | [11] 113 % of control

CC(Cl)C(=O)Nc1cc2ccccc2oc1=O (stereo not given)
inactive: [8] 106 % of control | [9] 94 % of control | [10] 93 % of control

Cc1ccc(N2C(=O)C3CSCN3C2=O)cc1 (stereo not given)
inactive: [8] 101 % of control | [9] 97 % of control | [10] 92 % of control
